Experiments:
Assay in all cases: radiometric filter-binding kinase assay
[1] = tested on: AKT2 (human), P31751 [S474D]
CAMKK2 (human) = CAMKK2 (human) (UniProt Q96RR4)
CHEK1 (human) = CHEK1 (human) (UniProt O14757)
CLK2 (human) = CLK2 (human) (UniProt P49760)
CSNK1D (human) = CSNK1D (human) (UniProt P48730)
DYRK1A (human) = DYRK1A (human) (UniProt Q13627)
EPHA4 (human) = EPHA4 (human) (UniProt P54764)
HIPK3 (human) = HIPK3 (human) (UniProt Q9H422)
IGF1R (human) = IGF1R (human) (UniProt P08069)
IKBKE (human) = IKBKE (human) (UniProt Q14164)
IRAK4 (human) = IRAK4 (human) (UniProt Q9NWZ3)
MAP3K7 TAB1 (human) = MAP3K7 TAB1 (human) (UniProt Q15750+O43318)
MAPK12 (human) = MAPK12 (human) (UniProt P53778)
Sequence of MAPK12 (human) (P53778 whole entry, looked up): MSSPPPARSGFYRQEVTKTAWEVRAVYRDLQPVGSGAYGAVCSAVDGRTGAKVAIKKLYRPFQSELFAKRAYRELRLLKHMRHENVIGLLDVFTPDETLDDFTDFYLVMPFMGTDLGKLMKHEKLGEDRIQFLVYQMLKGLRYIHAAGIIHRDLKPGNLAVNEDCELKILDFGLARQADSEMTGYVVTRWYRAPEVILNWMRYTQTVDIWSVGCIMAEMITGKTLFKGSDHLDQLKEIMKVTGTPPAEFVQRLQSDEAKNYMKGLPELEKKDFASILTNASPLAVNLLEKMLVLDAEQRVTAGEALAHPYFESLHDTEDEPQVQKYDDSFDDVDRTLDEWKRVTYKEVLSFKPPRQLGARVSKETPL

MAPK14 (human) = MAPK14 (human) (UniProt Q16539)
MAPK15 (human) = MAPK15 (human) (UniProt Q8TD08)
Sequence of MAPK15 (human) (Q8TD08 whole entry, looked up): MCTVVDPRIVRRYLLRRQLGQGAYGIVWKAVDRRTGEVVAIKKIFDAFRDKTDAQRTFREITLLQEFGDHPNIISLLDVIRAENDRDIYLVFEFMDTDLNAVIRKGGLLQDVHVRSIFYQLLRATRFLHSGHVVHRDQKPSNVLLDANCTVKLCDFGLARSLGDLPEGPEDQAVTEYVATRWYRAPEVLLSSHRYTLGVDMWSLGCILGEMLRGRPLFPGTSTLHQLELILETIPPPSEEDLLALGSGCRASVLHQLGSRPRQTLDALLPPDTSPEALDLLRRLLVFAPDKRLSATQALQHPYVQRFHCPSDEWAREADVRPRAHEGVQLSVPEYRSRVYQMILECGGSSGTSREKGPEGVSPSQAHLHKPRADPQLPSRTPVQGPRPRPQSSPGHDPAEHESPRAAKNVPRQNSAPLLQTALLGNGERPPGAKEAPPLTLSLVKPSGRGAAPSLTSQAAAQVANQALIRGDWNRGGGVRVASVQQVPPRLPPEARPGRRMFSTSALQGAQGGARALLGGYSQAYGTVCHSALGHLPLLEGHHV

MAPK3 (human) = MAPK3 (human) (UniProt P27361)
MAPKAPK2 (human) = MAPKAPK2 (human) (UniProt P49137)
MARK1 (human) = MARK1 (human) (UniProt Q9P0L2)
MARK2 (human) = MARK2 (human) (UniProt Q7KZI7)
Sequence of MARK2 (human) (Q7KZI7 whole entry, looked up): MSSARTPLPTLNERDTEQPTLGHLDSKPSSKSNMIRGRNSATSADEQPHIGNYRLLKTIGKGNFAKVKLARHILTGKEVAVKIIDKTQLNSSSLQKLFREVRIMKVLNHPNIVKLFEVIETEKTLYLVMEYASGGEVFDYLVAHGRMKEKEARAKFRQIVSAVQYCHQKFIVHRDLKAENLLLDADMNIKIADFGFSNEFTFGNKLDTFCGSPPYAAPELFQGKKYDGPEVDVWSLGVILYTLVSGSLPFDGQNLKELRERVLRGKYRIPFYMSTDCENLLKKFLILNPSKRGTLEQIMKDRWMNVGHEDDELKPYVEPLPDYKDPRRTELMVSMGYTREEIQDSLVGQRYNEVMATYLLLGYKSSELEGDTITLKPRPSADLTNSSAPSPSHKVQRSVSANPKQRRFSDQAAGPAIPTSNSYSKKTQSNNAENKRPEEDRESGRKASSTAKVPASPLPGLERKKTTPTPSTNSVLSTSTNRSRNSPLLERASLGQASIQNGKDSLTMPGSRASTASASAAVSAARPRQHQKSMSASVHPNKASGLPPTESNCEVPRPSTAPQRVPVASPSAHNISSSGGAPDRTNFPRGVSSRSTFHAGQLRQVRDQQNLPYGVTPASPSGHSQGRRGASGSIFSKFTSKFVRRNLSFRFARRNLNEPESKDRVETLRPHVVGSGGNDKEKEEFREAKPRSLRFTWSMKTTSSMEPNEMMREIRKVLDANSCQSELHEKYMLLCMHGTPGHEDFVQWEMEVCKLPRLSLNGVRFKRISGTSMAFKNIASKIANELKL

MST4 (human) = MST4 (human) (UniProt Q9P289)
NEK2 (human) = NEK2 (human) (UniProt P51955)
NEK6 (human) = NEK6 (human) (UniProt Q9HC98)
Sequence of NEK6 (human) (Q9HC98 whole entry, looked up): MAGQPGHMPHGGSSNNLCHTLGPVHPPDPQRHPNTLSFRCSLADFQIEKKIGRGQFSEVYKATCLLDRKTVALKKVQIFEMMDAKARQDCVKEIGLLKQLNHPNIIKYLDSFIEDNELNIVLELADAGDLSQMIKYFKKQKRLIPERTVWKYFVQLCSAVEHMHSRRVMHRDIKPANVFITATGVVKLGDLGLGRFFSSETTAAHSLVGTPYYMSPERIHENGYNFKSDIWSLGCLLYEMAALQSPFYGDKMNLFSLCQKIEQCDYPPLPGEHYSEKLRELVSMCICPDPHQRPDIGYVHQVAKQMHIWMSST

[2] = tested on: PAK2 (human), Q13177 [T402E]
PAK4 (human) = PAK4 (human) (UniProt O96013)
PAK6 (human) = PAK6 (human) (UniProt Q9NQU5)
PAK7 (human) = PAK7 (human) (UniProt Q9P286)
PIM2 (human) = PIM2 (human) (UniProt Q9P1W9)
PIM3 (human) = PIM3 (human) (UniProt Q86V86)
PKN2 (human) = PKN2 (human) (UniProt Q16513)
PLK1 (human) = PLK1 (human) (UniProt P53350)
RIPK2 (human) = RIPK2 (human) (UniProt O43353)
RPS6KA3 KD1 KD2 (human) = RPS6KA3 KD1 KD2 (human) (UniProt P51812)
RPS6KA5 KD1 KD2 (human) = RPS6KA5 KD1 KD2 (human) (UniProt O75582)
Sequence of RPS6KA5 KD1 KD2 (human) (O75582 whole entry, looked up): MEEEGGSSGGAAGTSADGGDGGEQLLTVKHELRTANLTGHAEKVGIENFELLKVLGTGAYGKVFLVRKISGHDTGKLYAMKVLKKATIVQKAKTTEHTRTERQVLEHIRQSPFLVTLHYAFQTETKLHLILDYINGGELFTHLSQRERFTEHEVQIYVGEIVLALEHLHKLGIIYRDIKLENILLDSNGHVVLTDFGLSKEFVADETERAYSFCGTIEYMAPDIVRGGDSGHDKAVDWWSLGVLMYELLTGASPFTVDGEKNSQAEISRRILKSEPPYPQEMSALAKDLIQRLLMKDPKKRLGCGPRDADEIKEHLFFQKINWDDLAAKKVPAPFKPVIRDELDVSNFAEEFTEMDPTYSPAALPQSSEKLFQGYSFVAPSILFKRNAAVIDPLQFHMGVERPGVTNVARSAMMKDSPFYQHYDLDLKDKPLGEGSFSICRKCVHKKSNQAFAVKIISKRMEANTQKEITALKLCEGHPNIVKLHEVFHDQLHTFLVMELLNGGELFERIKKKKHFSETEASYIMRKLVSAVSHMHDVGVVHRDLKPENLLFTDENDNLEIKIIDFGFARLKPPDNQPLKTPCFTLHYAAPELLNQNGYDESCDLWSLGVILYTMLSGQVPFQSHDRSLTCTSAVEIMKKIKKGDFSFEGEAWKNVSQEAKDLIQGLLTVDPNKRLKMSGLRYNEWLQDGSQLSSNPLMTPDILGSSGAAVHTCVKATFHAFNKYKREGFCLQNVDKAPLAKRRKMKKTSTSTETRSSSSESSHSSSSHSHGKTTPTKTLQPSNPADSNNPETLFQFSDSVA

[3] = tested on: SGK1 (human), O00141 [S422D]; conditions: compound 10.0 µM
SRPK1 (human) = SRPK1 (human) (UniProt Q96SB4)

Sequence of CAMKK2 (human) (Q96RR4 whole entry, looked up): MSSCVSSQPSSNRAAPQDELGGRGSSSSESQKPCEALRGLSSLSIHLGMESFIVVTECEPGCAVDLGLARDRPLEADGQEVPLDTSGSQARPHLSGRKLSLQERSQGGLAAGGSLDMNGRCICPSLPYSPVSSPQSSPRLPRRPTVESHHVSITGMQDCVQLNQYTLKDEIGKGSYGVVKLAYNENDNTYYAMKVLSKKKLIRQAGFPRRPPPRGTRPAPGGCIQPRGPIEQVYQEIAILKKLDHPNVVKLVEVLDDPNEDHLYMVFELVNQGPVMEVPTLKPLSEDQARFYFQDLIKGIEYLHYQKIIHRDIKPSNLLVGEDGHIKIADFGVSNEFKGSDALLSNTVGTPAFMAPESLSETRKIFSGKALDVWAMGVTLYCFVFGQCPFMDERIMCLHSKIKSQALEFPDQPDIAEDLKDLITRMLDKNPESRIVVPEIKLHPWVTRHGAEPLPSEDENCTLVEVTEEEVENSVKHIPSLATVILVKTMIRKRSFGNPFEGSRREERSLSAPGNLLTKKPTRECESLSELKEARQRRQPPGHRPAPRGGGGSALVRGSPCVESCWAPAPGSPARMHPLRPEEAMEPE
Sequence of IGF1R (human) (P08069 whole entry, looked up): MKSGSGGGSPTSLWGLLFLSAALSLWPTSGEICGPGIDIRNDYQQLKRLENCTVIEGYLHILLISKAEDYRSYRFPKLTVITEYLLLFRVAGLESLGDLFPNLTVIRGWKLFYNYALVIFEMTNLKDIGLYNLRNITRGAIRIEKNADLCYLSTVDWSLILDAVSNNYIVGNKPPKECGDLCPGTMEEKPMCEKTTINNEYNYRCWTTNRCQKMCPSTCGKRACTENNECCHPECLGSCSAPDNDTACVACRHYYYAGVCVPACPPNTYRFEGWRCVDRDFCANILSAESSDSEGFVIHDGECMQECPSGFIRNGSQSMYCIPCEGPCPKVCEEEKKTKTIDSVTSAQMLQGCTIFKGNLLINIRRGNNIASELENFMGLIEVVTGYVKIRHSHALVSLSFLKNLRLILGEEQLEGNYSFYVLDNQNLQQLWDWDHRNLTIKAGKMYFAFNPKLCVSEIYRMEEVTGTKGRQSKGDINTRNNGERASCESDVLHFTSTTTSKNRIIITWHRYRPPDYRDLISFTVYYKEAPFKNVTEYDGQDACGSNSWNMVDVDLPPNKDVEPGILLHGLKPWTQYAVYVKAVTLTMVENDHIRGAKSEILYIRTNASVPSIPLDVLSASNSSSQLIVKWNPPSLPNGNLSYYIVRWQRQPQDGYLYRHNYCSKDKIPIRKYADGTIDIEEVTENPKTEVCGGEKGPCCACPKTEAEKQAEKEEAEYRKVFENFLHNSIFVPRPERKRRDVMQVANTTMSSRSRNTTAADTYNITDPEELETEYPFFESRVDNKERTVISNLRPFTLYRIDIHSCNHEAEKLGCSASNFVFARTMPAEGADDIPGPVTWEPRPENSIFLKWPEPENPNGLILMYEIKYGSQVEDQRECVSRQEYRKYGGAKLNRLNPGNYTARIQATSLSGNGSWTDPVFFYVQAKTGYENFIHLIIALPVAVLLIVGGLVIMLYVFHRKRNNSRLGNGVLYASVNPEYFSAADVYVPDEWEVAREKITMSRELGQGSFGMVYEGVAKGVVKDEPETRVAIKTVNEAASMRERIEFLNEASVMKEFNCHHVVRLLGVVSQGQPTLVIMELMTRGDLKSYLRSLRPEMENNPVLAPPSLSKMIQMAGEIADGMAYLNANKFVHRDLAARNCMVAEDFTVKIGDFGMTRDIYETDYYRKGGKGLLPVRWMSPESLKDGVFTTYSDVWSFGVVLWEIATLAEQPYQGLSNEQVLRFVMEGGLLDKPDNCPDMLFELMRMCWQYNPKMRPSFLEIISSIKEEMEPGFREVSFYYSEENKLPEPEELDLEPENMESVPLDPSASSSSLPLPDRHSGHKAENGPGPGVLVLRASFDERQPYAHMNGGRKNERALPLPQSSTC

For `NC(=O)c1cc(-c2ccnc(NC3CCCCC3)c2)nc(N2CCNCC2)c1`, the residual activity ([1]; compound 0.1 µM) was 97%, the residual activity ([1]; compound 1.0 µM) was 57% and the residual activity ([1]; compound 10.0 µM) was 3%. For the same compound, the residual activity (CAMKK2 (human); compound 0.1 µM) was 85%, the residual activity (CAMKK2 (human); compound 1.0 µM) was 99% and the residual activity (CAMKK2 (human); compound 10.0 µM) was 62%. The residual activity (CHEK1 (human); compound 1.0 µM) was 100%, the residual activity (CHEK1 (human); compound 10.0 µM) was 70% and the residual activity (CLK2 (human); compound 0.1 µM) was 78%. The residual activity (CLK2 (human); compound 10.0 µM) was 51%, the residual activity (CSNK1D (human); compound 0.1 µM) was 75% and the residual activity (CSNK1D (human); compound 1.0 µM) was 42%. The residual activity (CSNK1D (human); compound 10.0 µM) was 18%, the residual activity (DYRK1A (human); compound 0.1 µM) was 97% and the residual activity (DYRK1A (human); compound 1.0 µM) was 63%. The residual activity (DYRK1A (human); compound 10.0 µM) was 21%, the residual activity (EPHA4 (human); compound 0.1 µM) was 90% and the residual activity (EPHA4 (human); compound 1.0 µM) was 78%. It also gave a residual activity (EPHA4 (human); compound 10.0 µM) of 48%, a residual activity (HIPK3 (human); compound 0.1 µM) of 95% and a residual activity (HIPK3 (human); compound 1.0 µM) of 92%. The residual activity (HIPK3 (human); compound 10.0 µM) was 101%, the residual activity (IGF1R (human); compound 0.1 µM) was 97% and the residual activity (IGF1R (human); compound 1.0 µM) was 102%. It also gave a residual activity (IGF1R (human); compound 10.0 µM) of 99%, a residual activity (IKBKE (human); compound 0.1 µM) of 98% and a residual activity (IKBKE (human); compound 1.0 µM) of 87%. For the same compound, the residual activity (IKBKE (human); compound 10.0 µM) was 48%, the residual activity (IRAK4 (human); compound 0.1 µM) was 96% and the residual activity (IRAK4 (human); compound 1.0 µM) was 127%. It also gave a residual activity (IRAK4 (human); compound 10.0 µM) of 92%, a residual activity (MAP3K7 TAB1 (human); compound 0.1 µM) of 94% and a residual activity (MAP3K7 TAB1 (human); compound 1.0 µM) of 100%. For the same compound, the residual activity (MAP3K7 TAB1 (human); compound 10.0 µM) was 55%, the residual activity (MAPK12 (human); compound 0.1 µM) was 95% and the residual activity (MAPK12 (human); compound 1.0 µM) was 96%. It also gave a residual activity (MAPK12 (human); compound 10.0 µM) of 58%, a residual activity (MAPK14 (human); compound 0.1 µM) of 104% and a residual activity (MAPK14 (human); compound 1.0 µM) of 116%. The residual activity (MAPK14 (human); compound 10.0 µM) was 103%, the residual activity (MAPK15 (human); compound 0.1 µM) was 63% and the residual activity (MAPK15 (human); compound 1.0 µM) was 26%. For the same compound, the residual activity (MAPK15 (human); compound 10.0 µM) was 4%, the residual activity (MAPK3 (human); compound 0.1 µM) was 78% and the residual activity (MAPK3 (human); compound 1.0 µM) was 34%. For the same compound, the residual activity (MAPK3 (human); compound 10.0 µM) was 10%, the residual activity (MAPKAPK2 (human); compound 0.1 µM) was 99% and the residual activity (MAPKAPK2 (human); compound 1.0 µM) was 72%. It also gave a residual activity (MAPKAPK2 (human); compound 10.0 µM) of 22%, a residual activity (MARK1 (human); compound 0.1 µM) of 51% and a residual activity (MARK1 (human); compound 1.0 µM) of 94%. The residual activity (MARK1 (human); compound 10.0 µM) was 76%, the residual activity (MARK2 (human); compound 0.1 µM) was 97% and the residual activity (MARK2 (human); compound 1.0 µM) was 63%. It also gave a residual activity (MARK2 (human); compound 10.0 µM) of 31%, a residual activity (MST4 (human); compound 0.1 µM) of 117% and a residual activity (MST4 (human); compound 1.0 µM) of 107%. The residual activity (MST4 (human); compound 10.0 µM) was 95%, the residual activity (NEK2 (human); compound 0.1 µM) was 111% and the residual activity (NEK2 (human); compound 1.0 µM) was 129%. The residual activity (NEK2 (human); compound 10.0 µM) was 113%, the residual activity (NEK6 (human); compound 0.1 µM) was 86% and the residual activity (NEK6 (human); compound 1.0 µM) was 87%. It also gave a residual activity (NEK6 (human); compound 10.0 µM) of 42%, a residual activity ([2]; compound 0.1 µM) of 105% and a residual activity ([2]; compound 1.0 µM) of 93%. It also gave a residual activity ([2]; compound 10.0 µM) of 57%, a residual activity (PAK4 (human); compound 0.1 µM) of 101% and a residual activity (PAK4 (human); compound 1.0 µM) of 93%. The residual activity (PAK4 (human); compound 10.0 µM) was 74%, the residual activity (PAK6 (human); compound 0.1 µM) was 99% and the residual activity (PAK6 (human); compound 1.0 µM) was 99%. The residual activity (PAK6 (human); compound 10.0 µM) was 81%, the residual activity (PAK7 (human); compound 0.1 µM) was 97% and the residual activity (PAK7 (human); compound 1.0 µM) was 90%. The residual activity (PAK7 (human); compound 10.0 µM) was 71%, the residual activity (PIM2 (human); compound 0.1 µM) was 99% and the residual activity (PIM2 (human); compound 1.0 µM) was 102%. The residual activity (PIM2 (human); compound 10.0 µM) was 99%, the residual activity (PIM3 (human); compound 0.1 µM) was 97% and the residual activity (PIM3 (human); compound 1.0 µM) was 58%. For the same compound, the residual activity (PIM3 (human); compound 10.0 µM) was 42%, the residual activity (PKN2 (human); compound 0.1 µM) was 96% and the residual activity (PKN2 (human); compound 1.0 µM) was 66%. For the same compound, the residual activity (PKN2 (human); compound 10.0 µM) was 19%, the residual activity (PLK1 (human); compound 0.1 µM) was 101% and the residual activity (PLK1 (human); compound 1.0 µM) was 117%. It also gave a residual activity (PLK1 (human); compound 10.0 µM) of 111%, a residual activity (RIPK2 (human); compound 0.1 µM) of 96% and a residual activity (RIPK2 (human); compound 1.0 µM) of 96%. For the same compound, the residual activity (RIPK2 (human); compound 10.0 µM) was 79%, the residual activity (RPS6KA3 KD1 KD2 (human); compound 0.1 µM) was 98% and the residual activity (RPS6KA3 KD1 KD2 (human); compound 10.0 µM) was 81%. The residual activity (RPS6KA5 KD1 KD2 (human); compound 0.1 µM) was 97%, the residual activity (RPS6KA5 KD1 KD2 (human); compound 1.0 µM) was 109% and the residual activity (RPS6KA5 KD1 KD2 (human); compound 10.0 µM) was 79%. The residual activity [3] was 90%, the residual activity (SRPK1 (human); compound 0.1 µM) was 105% and the residual activity (SRPK1 (human); compound 1.0 µM) was 86%. It also gave a residual activity (SRPK1 (human); compound 10.0 µM) of 46%.

— the kinase profiling compilation of Christmann-Franck et al. (2016)
